Where “and” joins values, the source holds several entries; their conditions need not be identical. Equal values may be shown once. Where a name gives a salt, the structure may show the parent alone. Read-outs that look alike come from different tables or passages of the source.
Assays:
[1] = molecular target: T1, SARS-CoV-2 PLpro (Severe acute respiratory syndrome coronavirus 2, UniProt P0DTC1); assay: In vitro PLpro protease inhibition assay (Z-RLRGG-AMC); assay type: biochemical
[2] = tested on: SARS-CoV-2; assay: microbe, parasite or virus in culture; assay type: cell-based
[3] = tested on: SARS-CoV-2; assay type: cell-based; conditions: Huh-7.5, MOI 0.1, 24 h.p.i., anti-N IFA
[4] = tested on: HEK293T cells; assay: Cell viability (alamarBlue) on HEK293T cells; conditions: replicate data
[5] = tested on: SARS-CoV-2; assay: qRT-PCR of viral RNA molecules in infected Huh-7.5 cells; assay type: cell-based; conditions: Huh-7.5, 24 h.p.i.
Description: We tested the effect of selected compounds in inhibiting the spread of SARS-CoV-2 on cell monolayers was tested by immunofluorescence assay (IFA) (Fig. 5a). From the percentage of inhibition (Fig. 5b), we calculated that the PLpro inhibitors Sitagliptin and Daclastavir inhibited virus spread by 75% and 70%, respectively, compared to untreated controls (Fig. 5b). […] We next determined whether the reduction in virus spread in the inhibitor-treated cells correlates with virus replication. We extracted total RNA from infected cells treated with inhibitors and quantified the number of viral RNA molecules by quantitative real-time polymerase chain reaction (qRT-PCR) (Fig. 5c). […] However, the reduction in the number of viral RNA molecules was lower for BMS-707035 (1-log reduction), Atazanavir (0.5-log), and Lomibuvir (0.5-log).
Fig. 5 Effect of compounds selected from ICP assay on SARS-CoV-2 replication. a Huh-7.5 cells positive for SARS-CoV-2 determined by immunofluorescence assay. Huh-7.5 cells pre-treated for 24 h with inhibitors were infected with SARS-CoV-2 at an MOI of 0.1. At 24 h.p.i., cells were fixed with paraformaldehyde and probed with anti-N (SARS CoV-2 nucleocapsid) primary antibody and FITC-conjugated goat anti-rabbit secondary antibody (green, infected cells). Nuclei were stained with Hoechst stain and confocal images were acquired. b The ratio of infected to uninfected cells for each treatment was calculated using Nikon Elements software and normalized to untreated controls (n = 5). c Quantification of SARS-CoV-2 RNA molecules from infected cells treated with inhibitors as indicated (n = 3).
Huh-7.5 cells grown in DMEM in 6 well tissue culture plates were pre-treated with different concentrations of compounds for 24 h were infected with 0.1 MOI of SARS-CoV-2. After 1 h of infection, virus-containing media were replaced with fresh media-containing compounds, and the plates were incubated at 37 °C. Untreated cells were included in the experiment as controls. After 24 h, total RNA was extracted from the cells using a Zymopure Quick-RNA extraction kit. The number of viral RNA molecules in the extracted total RNA samples was determined by quantitative RT-PCR on a QuantStudio-3 machine (Applied BioSystems) using primers –Forward […] and Reverse […]. The Ct values obtained were used to calculate the number of RNA molecules using a standard curve of Ct versus RNA molecules.

[6] = Cytotoxicity assay (alamarBlue) on Huh-7.5 cells; conditions: human, CC50, Huh-7.5 cells, alamarBlue reduction
[7] = molecular target: T2, SARS-CoV-2 Mpro (Severe acute respiratory syndrome coronavirus 2, UniProt P0DTC1); assay: biochemical; conditions: for inhibition of Mpro protease activity: FRET assay
Description: A cleavage site is indicated by an asterisk. […] N = 3, values are represented as mean ± SE.
For the determination of half-maximal inhibitory concentrations (IC50) of MG-101 and GC376 (BPS Bioscience), a synthetic substrate of Mpro containing FRET pair and Mpro nsp4/5 cleavage site (indicated by an arrow, Dabcyl-KTSAVLQ ↓ SGFRKME-Edans) (BPS Bioscience) was used for the FRET-based cleavage assay. The assay was performed in 96-well, black, flat-bottomed microtiter plates (Greiner Bio-One, Germany) with a final volume of 50 μl. Mpro (a final concentration of 200 nM) was pre-incubated for 1 h at 22 °C with compounds at different concentrations in the assay buffer (20 mM HEPES (pH 7), 0.5 mM EDTA, 1 mM dithiothreitol, 5% glycerol). The substrate was then added at a final concentration of 10 μM to the reaction mixture and the reaction was incubated for 4 h at 22 °C. The readings for the different concentrations of the inhibitor compounds incubated with the substrate without Mpro were measured as a blank. The fluorescence signals (excitation/emission, 360 nm/460 nm) of released EDANS were measured using Infinite 200 PRO multimode plate reader (Tecan, USA). The results were plotted as dose inhibition curves using nonlinear regression with a variable slope to determine the IC50 values of inhibitor compounds using GraphPad Prism 9.0.

[8] = molecular target: T2, SARS-CoV-2 Mpro; assay: In-cell protease (ICP) assay, Mpro construct in HEK293T cells; assay type: cell-based; conditions: for remaining activity at 1 µM / remaining activity at 10 µM: HEK-293T; for remaining activity at 1 µM: read-out: mEmerald-NLS nuclear/total fluorescence (protease activity) normalized to untreated cells, 1 μM, HEK293T, Fig 2A replicate data, untreated control = 100; for remaining activity at 10 µM: read-out: mEmerald-NLS nuclear/total fluorescence (protease activity) normalized to untreated cells, 10 μM, HEK293T, Fig 2A replicate data, untreated control = 100
[9] = in vitro; conditions: human
[10] = tested on: SARS-CoV-2; conditions: Vero E6 cells; cited from earlier work
[11] = tested on: SARS-CoV-2; assay: Time of addition (pre-treatment) experiment in Huh-7.5 cells, plaque assay; assay type: cell-based; conditions: Huh-7.5, pretreatment
[12] = tested on: Huh-7.5 cells; assay: Cytotoxicity assay (alamarBlue) on Huh-7.5 cells; conditions: Huh-7.5 cells, alamarBlue reduction
[13] = tested on: SARS-CoV; conditions: Vero E6 cells; cited from earlier work
[14] = tested on: Mpro; conditions: read-out: IC50, reported value; cited from earlier work
[15] = tested on: COVID-19; parameters: method as in PMID 32994187; conditions: cited from earlier work
[16] = molecular target: T1, SARS-CoV-2 PLpro; assay: cell-based; conditions: HEK-293T, read-out: mEmerald-NLS nuclear/total fluorescence (protease activity) normalized to untreated cells, 10 μM, HEK293T, Fig 2A replicate data, untreated control = 100
[17] = Severe acute respiratory syndrome coronavirus 2, Huh7.5, Huh-7.5 cells, MOI 0.1, 24 h.p.i., plaque assay

## COC(=O)N[C@H](C(=O)N1CCC[C@H]1c1nc(-c2ccc(-c3ccc(-c4c[nH]c([C@@H]5CCCN5C(=O)[C@@H](NC(=O)OC)C(C)C)n4)cc3)cc2)c[nH]1)C(C)C [Daclastavir HCl]
[1]
  IC50: 1840 ± 256 nM
[2]; [17]
  EC50: 1590 nM
[3]
  inhibition of virus spread compared to untreated controls: 70%
[4]; listed as Daclatasvir dihydrochloride
  % normalised alamar Blue reduction at 10μM: 89% and 80% and 96%
[5]
  reduction in the number of viral RNA molecules compared to untreated cells: 2 log
[6]
  CC50 at 24 h: 32100 nM

## COC(=O)N[C@H](C(=O)N1CCC[C@H]1c1nc(-c2ccc(-c3ccc(-c4c[nH]c([C@@H]5CCCN5C(=O)[C@@H](NC(=O)OC)C(C)C)n4)cc3)cc2)c[nH]1)C(C)C [Daclatasvir (BMS-790052)]
[4]
  % normalised alamar Blue reduction at 10μM: 80% and 88% and 75%

## CC(C)(C)C#Cc1cc(N(C(=O)[C@H]2CC[C@H](C)CC2)[C@H]2CC[C@H](O)CC2)c(C(=O)O)s1 [Lomibuvir]
[7]
  inhibition of Mpro protease activity: not found to be effectively inhibiting the Mpro protease activity
[2]; [17]
  EC50: 70 nM
[3]
  inhibition of virus spread compared to untreated controls: below 50%
[8]
  remaining activity at 1 µM: 90%
  remaining activity at 10 µM: 44%
[9]; CC50
  CC50 at 24 h: 48000 nM

## CC(C)(C)NC(=O)N[C@H](C(=O)N1C[C@H]2[C@@H]([C@H]1C(=O)NC(CC1CCC1)C(=O)C(N)=O)C2(C)C)C(C)(C)C (stereo partly shown) [Bocoprevir]
[8]
  remaining activity at 1 µM: 71%
  remaining activity at 10 µM: 69%

## COC(=O)N[C@H](C(=O)N[C@@H](Cc1ccccc1)[C@@H](O)CN(Cc1ccc(-c2ccccn2)cc1)NC(=O)[C@@H](NC(=O)OC)C(C)(C)C)C(C)(C)C [Atazanavir]
[7]
  inhibition of Mpro protease activity: not found to be effectively inhibiting the Mpro protease activity
[2]; [17]
  EC50: 60 nM
[3]
  inhibition of virus spread compared to untreated controls: below 50%
[8]
  remaining activity at 1 µM: 89%
  remaining activity at 10 µM: 50%
[10]
  EC50: 500 ± 80 nM
[4]; listed as Atazanavir sulfate
  % normalised alamar Blue reduction at 10μM: 89% and 95.2% and 90.5%
[6]
  CC50 at 24 h: 77200 nM

## Cn1c(N2CCCCS2(=O)=O)nc(C(=O)NCc2ccc(F)cc2)c(O)c1=O [BMS-707035]
[7]
  inhibition of Mpro protease activity: not found to be effectively inhibiting the Mpro protease activity
[2]; Severe acute respiratory syndrome coronavirus 2, Huh7.5, Huh-7.5 cells
  EC50: 270 nM
[3]
  inhibition of virus spread compared to untreated controls: 81%
[8]
  remaining activity at 1 µM: 79%
  remaining activity at 10 µM: 60%
[9]; CC50
  CC50 at 24 h: 42200 nM

## O[C@H]1[C@H]2c3cc4c(cc3CN3CCC(=C[C@@H]1O)[C@H]23)OCO4 [Lycorine HCl]
[7]
  inhibition of Mpro protease activity: not found to be effectively inhibiting the Mpro protease activity
[2]; Huh-7.5 cells
  Selectivity index SI = CC50/EC50: 1878
[2]; Severe acute respiratory syndrome coronavirus 2, Huh7.5, 24 h
  EC50: 10 nM
[3]
  inhibition of virus spread compared to untreated controls: 88%
[8]
  remaining activity at 1 µM: 43%
  remaining activity at 10 µM: 25%
[10]
  EC50: 300 nM
[4]; listed as Lycorine hydrochloride
  % normalised alamar Blue reduction at 10μM: 76% and 65% and 69.32%
[11]
  effect of pre-treatment on virus production / entry: only minimal effect on virus production
[12]
  CC50: 19000 nM
[6]
  CC50 at 24 h: 18800 nM
[13]
  EC50: 16 nM

## CC(C)CN(C[C@@H](O)[C@H](Cc1ccccc1)NC(=O)O[C@H]1CO[C@H]2OCC[C@H]21)S(=O)(=O)c1ccc(N)cc1 [Darunavir]
[4]
  % normalised alamar Blue reduction at 10μM: 80% and 97% and 79%

## C=C[C@@H]1C[C@]1(NC(=O)[C@@H]1C[C@@H](Oc2ncc(OC)c3ccc(Cl)cc23)CN1C(=O)[C@@H](NC(=O)OC(C)(C)C)C(C)(C)C)C(=O)NS(=O)(=O)C1CC1 [Asunaprevir]
[8]
  remaining activity at 1 µM: 88%
  remaining activity at 10 µM: 69%
[4]
  % normalised alamar Blue reduction at 10μM: 78% and 88% and 90%

## COc1cc(O)c(CC=C(C)C)c2c1C(=O)CC(c1ccc(O)cc1)O2 (stereo not shown) [Isoxanthohumol]
[8]
  remaining activity at 1 µM: 90%
  remaining activity at 10 µM: 60%

## CC(C)C[C@H](NC(=O)OCc1ccccc1)C(=O)N[C@@H](CC1CCNC1=O)C(O)S(=O)(=O)O (stereo partly shown) [GC376]
[7]
  IC50: 130 ± 70 nM
[14]
  IC50: 190 nM

## Cc1cccc(C)c1OCC(=O)N[C@@H](Cc1ccccc1)[C@@H](O)C[C@H](Cc1ccccc1)NC(=O)[C@H](C(C)C)N1CCCNC1=O [Lopinavir]
[8]
  remaining activity at 1 µM: 80%
  remaining activity at 10 µM: 65%

## N[C@@H](CC(=O)N1CCn2c(nnc2C(F)(F)F)C1)Cc1cc(F)c(F)cc1F [Sitagliptin]
[1]; PLpro 300 nM, Z-RLRGG-AMC 25 μM, read-out: IC50
  IC50: 1140 ± 190 nM
[2]
  Selectivity index SI = CC50/EC50: 67
[2]; [17]
  EC50: 320 nM
[2]; single drug 1 μM, Huh 7.5, replicates
  virus titer at 24 h.p.i., Fig 6A data: 56000 and 64000 and 40000
[3]
  inhibition of virus spread compared to untreated controls: 75%
[15]; added to standard care, vs. 37% with standard of care
  mortality rate (deceased patients): 18%
[15]; vs. 38% with standard of care
  improved clinical outcomes (improved patients): 60%
[15]; vs. 89 with standard of care
  hospital discharges (discharged patients): 120
[8]; ICP assay
  effect on Mpro activity in cells: does not inhibit Mpro activity
[5]
  reduction in the number of viral RNA molecules compared to untreated cells: 2 log
[12]
  CC50: 22000 nM
[16]
  remaining activity at 10 µM: 56%
[9]; CC50, Huh-7.5 cells, alamarBlue reduction
  CC50 at 24 h: 21600 nM

## Cc1c(O)cccc1C(=O)N[C@@H](CSc1ccccc1)[C@H](O)CN1C[C@H]2CCCC[C@H]2C[C@H]1C(=O)NC(C)(C)C [Nelfinavir mesylate]
[7]
  inhibition of Mpro protease activity: not found to be effectively inhibiting the Mpro protease activity
[2]; 1 µM final concentration (each), Huh-7.5, replicates
  virus titer at 24 h.p.i., Fig S2B data: 80000 and 64000 and 88000
[2]; [17]
  EC50: 70 nM
[3]
  inhibition of virus spread compared to untreated controls: 95%
[8]
  remaining activity at 1 µM: 60%
  remaining activity at 10 µM: 45%
[4]
  % normalised alamar Blue reduction at 10μM: 88% and 75.67% and 90%
[11]
  effect of pre-treatment on virus production / entry: only minimal effect on virus production
[5]
  reduction in the number of viral RNA molecules compared to untreated cells: approximately 3 log
[5]; listed as Nelfinavir
  reduction in the number of viral RNA molecules compared to untreated cells: 3 log
[12]
  CC50: 26000 nM
[6]
  CC50 at 24 h: 26000 nM

— paper PMC8881501, “Identification of SARS-CoV-2 inhibitors targeting Mpro and PLpro using in-cell-protease assay” (Communications Biology, 2022)
